In patent US12516036B2, “Crystal form of 3-(4-(benzyloxy)phenyl)hex-4-inoic acid derivative” (HYUNDAI PHARM CO., LTD., priority 2019, dated 2026):

Key:
[1] = Thermal stability test (thermal stress, 80° C.); format: physicochemical; conditions: for Change in properties (appearance): 80° C.; for Purity (%) Initial: before thermal stress test; for Purity (%) Initial / Purity (%) Month 1 / Purity (%) Day 6 / Purity (%) Day 14: HPLC; for Purity change (%) Month 1 − Initial / Purity (%) Month 1 / Purity (%) Day 6 / Purity (%) Day 14: sealed vial, oven 80° C.; for Purity change (%) Month 1 − Initial: 1 month vs initial; for Purity (%) Month 1: 1 month; for Purity (%) Day 6: 6 days; for Purity (%) Day 14: 14 days; for Change in XRD pattern before and after thermal stress: 80° C. thermal stress (FIG. 11-14)
Protocol: The crystal form I, crystal form II, and amorphous form samples of a compound of Chemical Formula 1 were subjected to a thermal stability test.
0.3 g of each sample was input into a 20 mL vial (prepared 0.3 g*3 ea for each sample), and the vial was sealed by closing a lid and then allowed to stand in an oven set at 80° C. Afterward, the sample was taken out after 6 days, 14 days, and 1 month had elapsed, and the changes in properties, purity, and XRD pattern before and after thermal stress conditions were examined. • Purity was measured under the following conditions using a HPLC. • Column: YMC-Pack Pro C18, 5 um, 4.6×150 mm • Column temperature: 35° C. • Flow rate: 1.0 mL/min • Injection volume: 5 uL • Wavelength: 220 nm • Mobile Phase A: 0.1% TFA in H2O/MeOH=60/40 • Mobile Phase B: MeOH/0.1% TFA in ACN=60/40 • Gradient:
• Diluent: H2O/ACN=80/20 • Run time: 40 min • Sample concentration: 0.7 mg/mL

[2] = Compressibility test (bulk/tapped density, Carr index, Hausner ratio); format: physicochemical; conditions: for Carr Index (CI): CI=100×(1−BD/TD); for Hausner ratio (Hr): Hr=TD/BD; for Description of flow: criteria of Table 5; for Bulk density BD / Tapped density TD: unit assumed
Text: Since a drug that causes a lot of static electricity has difficulty in handling and compressing to form a tablet when formulated, it is very difficult to implement a preparation with a uniform drug content. Accordingly, in relation to the static electricity-inducing capability and flowability of the three types of crystal form I, crystal form II, and the amorphous form, the compressibility of each preparation containing these drugs was examined.
The Carr index is used as an indication of the compressibility of a preparation and is related to convenience in formulation, that is, static electricity-inducing capability, flowability, and uniformity of drug content.
The Carr Index (CI) is calculated as follows. CI=100×(1−BD/TD) • BD: bulk density, TD: tapped density
The Hausner ratio (Hr) is also an indication related to the flowability of a powder or granular drug.
The Hausner ratio (Hr) is calculated as follows. Hr=TD/BD
As a result of the test, the bulk density and tapped density of the crystal form I, the crystal form II, and the amorphous form were obtained and summarized in Table 4, through which the Carr Index (CI) and Hausner ratio (Hr) were obtained, and based on the criteria in Table 5, the evaluation results for the Carr Index (CI), Hausner ratio (Hr), and flowability are shown in Table 6.

[3] = Storage stability test (formulated powder, 60° C. and 75% RH); format: physicochemical; conditions: for Purity (%) Initial: powder mix with microcrystalline cellulose and light anhydrous silicic acid; for Purity (%) Week 2 / Purity (%) Week 4 / Purity (%) Week 8 / Purity change (%) Week 8 − Initial: powder mix; for Purity (%) Week 2: 2 weeks; for Purity (%) Week 4: 4 weeks; for Purity (%) Week 8: 8 weeks; for Purity change (%) Week 8 − Initial: 8 weeks vs initial
Protocol: In order to confirm stability when the crystal form I, crystal form II, and amorphous form of a compound of Chemical Formula 1 were formulated, powder obtained by mixing 50 mg of each sample, 149 mg of microcrystalline cellulose, and 1 mg of light anhydrous silicic acid was input into a brown glass bottle and allowed to stand in a stability chamber set under conditions of 60° C. and 75% RH, and the sample was taken out after 2 weeks, 4 weeks, 8 weeks had elapsed to confirm the purity of the compound of Chemical Formula 1 over time.
When the storage period for each storage condition was reached, 35 mg of the compound of Chemical Formula 1 was taken from each sample, input into a 50 mL volumetric flask, dissolved with an appropriate amount of diluent, and marked. The resulting solution was input into a glass centrifuge tube and centrifuged at 3,000 rpm and 5° C. for 10 minutes. The sample was taken using a glass pipette and input into a HPLC vial for analysis.

[4] = in vivo; cited from earlier work
[5] = molecular target: free fatty acid receptor 1 (FFAR1)/a G-protein coupled receptor (GPR40) (Homo sapiens, UniProt O14842); conditions: cited from earlier work
free fatty acid receptor 1 (FFAR1)/a G-protein coupled receptor (GPR40), sequence (O14842 whole entry, species assumed): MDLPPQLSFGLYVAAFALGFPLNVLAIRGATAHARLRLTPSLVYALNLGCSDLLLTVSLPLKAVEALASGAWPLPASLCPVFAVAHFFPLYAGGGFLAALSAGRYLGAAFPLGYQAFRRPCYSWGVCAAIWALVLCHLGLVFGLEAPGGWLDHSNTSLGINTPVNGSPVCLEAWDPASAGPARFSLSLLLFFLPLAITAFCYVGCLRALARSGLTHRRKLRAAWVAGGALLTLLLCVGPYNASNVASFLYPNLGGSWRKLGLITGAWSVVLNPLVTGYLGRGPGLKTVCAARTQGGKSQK

[6] = after 1 month of the thermal stress test (FIG. 10)

Compound | Purity (%) Initial [1] | Purity change (%) Month 1 − Initial [1] | Purity (%) Month 1 [1] | Purity (%) Day 6 [1] | Purity (%) Day 14 [1] | Carr Index (CI) [2] | Hausner ratio (Hr) [2] | Description of flow [2] | Bulk density BD [2] | Tapped density TD [2] | Purity (%) Initial [3] | Purity (%) Week 2 ([3]; 60° C. and 75% RH) | Purity (%) Week 4 ([3]; 60° C. and 75% RH) | Purity (%) Week 8 ([3]; 60° C. and 75% RH) | Purity change (%) Week 8 − Initial ([3]; 60° C. and 75% RH) | Change in XRD pattern before and after thermal stress [1] | Change in properties (appearance) [1, 6] | other results
CC#C[C@@H](CC(=O)O)c1ccc(OCc2cccc(C3=CCC4(CC3)OCCO4)c2)cc1 [Amorphous form, (3S)-3-(4-(3-(1,4-dioxaspiro[4,5]dec-7-en-8-yl)benzyloxy)phenyl)hex-4-inoic acid] | 99.33% | −11.69% | 87.64% | 96.76% | 94.35% | 18.48 | 1.23 | Fair (16-20) | 0.353 g/mL | 0.433 g/mL | 100.6% | 91.5% | 86.8% | 77.5% | −23.1% | – | – | Change in properties (appearance) ([1]; after 6 days of the thermal stress test (FIG. 10)): turned yellow
CC#C[C@@H](CC(=O)O)c1ccc(OCc2cccc(C3=CCC4(CC3)OCCO4)c2)cc1 [Crystal form I, (3S)-3-(4-(3-(1,4-dioxaspiro[4,5]dec-7-en-8-yl)benzyloxy)phenyl)hex-4-inoic acid] | 99.40% | −3.65% | 95.75% | 98.67% | 97.91% | 13.41 | 1.15 | Good (11-15) | 0.381 g/mL | 0.44 g/mL | 100.2% | 101.8% | 100.9% | 99.9% | −0.3% | no significant change in XRD pattern peak | no significant change in properties | Storage stability ranking ([3]; 60° C. and 75% RH, compared among crystal form I, crystal form II, amorphous form): stablest
CC#C[C@@H](CC(=O)O)c1ccc(OCc2cccc(C3=CCC4(CC3)OCCO4)c2)cc1 [Crystal form II, (3S)-3-(4-(3-(1,4-dioxaspiro[4,5]dec-7-en-8-yl)benzyloxy)phenyl)hex-4-inoic acid] | 99.53% | −3.75% | 95.78% | 98.73% | 97.80% | 54.05 | 2.18 | Very, very poor | 0.136 g/mL | 0.296 g/mL | 99.1% | 96.2% | 92.3% | 88% | −11.1% | shifting of specific peaks | no significant change in properties | Compressibility test results (in words) [2]: very poor; Static electricity-inducing capability ([2]; filling a die for tableting): excessively caused static electricity
CC#C[C@@H](CC(=O)O)c1ccc(OCc2cccc(C3=CCC4(CC3)OCCO4)c2)cc1 [compound of Chemical Formula 1, (3S)-3-(4-(3-(1,4-dioxaspiro[4,5]dec-7-en-8-yl)benzyloxy)phenyl)hex-4-inoic acid] | – | – | – | – | – | – | – | – | – | – | – | – | – | – | – | – | – | Blood sugar lowering effect [4]: excellent blood sugar lowering effect; Activation of FFAR1/GPR40 (increase of intracellular calcium concentration) [5]: activates
